Reference: PubChem BioAssay (NCI)
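96-well plates; 48 h exposure; 5 concentrations. Endpoints by linear interpolation between flanking doses. Not reached: highest tested concentration assigned. At the TGI there is no net growth.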

What was measured:
Test in all cases: NCI anticancer screen, dose series, 48 h
[1] = tested on: 786-0 renal
[2] = tested on: M19-MEL melanoma
[3] = tested on: HCT-116 colon
[4] = tested on: NCI-H460 lung
[5] = tested on: NCI-H23 lung
[6] = tested on: LOX IMVI melanoma
[7] = tested on: NCI-H522 lung
[8] = tested on: EKVX NSCLC
[9] = tested on: A549 NSCLC
[10] = tested on: SN12C renal
[11] = tested on: COLO 205 colon
[12] = tested on: ACHN renal
[13] = tested on: M14 melanoma
[14] = tested on: HOP-62 NSCLC
[15] = tested on: MALME-3M melanoma
[16] = tested on: HT29 colon
[17] = tested on: OVCAR-4 ovarian
[18] = tested on: SNB-75 CNS
[19] = tested on: SF-539 CNS
[20] = tested on: UACC-62 melanoma
[21] = tested on: HCT-15 colon
[22] = tested on: SW-620 colon
[23] = tested on: RPMI-8226 leukemia
[24] = tested on: OVCAR-3 ovarian
[25] = tested on: A498 renal
[26] = tested on: SR leukemia
[27] = tested on: K-562 leukemia
[28] = tested on: U251 CNS
[29] = tested on: HOP-92 NSCLC
[30] = tested on: SNB-19 CNS
[31] = tested on: HCC-2998 colon
[32] = tested on: IGROV1 ovarian
[33] = tested on: KM12 colon
[34] = tested on: SK-OV-3 ovarian
[35] = tested on: TK-10 renal
[36] = tested on: OVCAR-8 ovarian
[37] = tested on: UACC-257 melanoma
[38] = tested on: SF-295 CNS
[39] = tested on: LXFL 529 NSCLC
[40] = tested on: RXF 393 renal
[41] = tested on: DMS 273 small cell lung
[42] = tested on: HL-60(TB) leukemia
[43] = tested on: SK-MEL-28 melanoma
[44] = tested on: SK-MEL-2 melanoma
[45] = tested on: CCRF-CEM leukemia
[46] = tested on: SNB-78 CNS
[47] = tested on: MOLT-4 leukemia
[48] = tested on: KM20L2 colon
[49] = tested on: SK-MEL-5 melanoma
[50] = tested on: CAKI-1 renal
[51] = tested on: UO-31 renal
[52] = tested on: SF-268 CNS
[53] = tested on: NCI-H226 lung
[54] = tested on: XF 498 CNS
[55] = tested on: DMS 114 small cell lung
[56] = tested on: OVCAR-5 ovarian
[57] = tested on: PC-3 prostate
[58] = tested on: BT-549 breast
[59] = tested on: MCF7 breast
[60] = tested on: MDA-MB-231 breast
[61] = tested on: MDA-N
[62] = tested on: MDA-MB-435
[63] = tested on: HS 578T breast
[64] = tested on: DU-145 prostate
[65] = tested on: NCI/ADR-RES ovarian
[66] = tested on: T-47D breast
[67] = tested on: DLD-1 colon

Measured: TGI

Cc1ccc(S(=O)(=O)OC(COC(=O)c2ccccc2)C(OS(=O)(=O)c2ccc(C)cc2)C(OS(=O)(=O)c2ccc(C)cc2)C(COC(=O)c2ccccc2)OS(=O)(=O)c2ccc(C)cc2)cc1 (stereo unspecified)
> 10 µM: [20] | [32] | [34]
90 µM: [18]
not listed: [53] | [54] | [55] | [56] | [57] | [58] | [59] | [60] | [61] | [62] | [63] | [64] | [65] | [66] | [67]
> 100 µM: all other assays above

COC(=O)C(Cc1ccc(N(C)C)cc1)(NC(=O)c1ccccc1)P(=O)(OC)OC (stereo unspecified)
not listed: [1] | [15] | [24] | [46] | [57] | [58] | [59] | [60] | [61] | [62] | [63] | [64] | [65] | [66] | [67]
> 100 µM: all other assays above

CC(C)(C)NC(=O)/C(=C\Sc1ccccc1)c1ccccc1
> 52.1 µM: [7]
> 87.8 µM: [52]
> 42.4 µM: [29]
> 79.4 µM: [6]
not listed: [2] | [39] | [41] | [46] | [48] | [54] | [55] | [67]
> 100 µM: all other assays above

O=C(Nc1ccccc1Cl)c1ccc([N+](=O)[O-])cc1
47.5 µM: [18]
not listed: [3] | [12] | [17] | [26] | [29] | [39] | [42] | [55] | [56] | [57] | [58] | [59] | [60] | [61] | [62] | [63] | [64] | [65] | [66]
> 100 µM: all other assays above
